Columns and labels:
Test in all cases: Test B preemergence/postemergence greenhouse plant response rating 0 to 10
Conditions in all cases: 0 to 10 scale
[1] = system: bedstraw; assay type: in vivo, Galium aparine
Source text: (§1) Seeds of barley (Hordeum vulgare), barnyardgrass (Echinochloa crus-galli), bedstraw (Galium aparine), blackgrass (Alopecurus myosuroides), […] (Bromus secalinus), chickweed (Stellaria media), cocklebur (Xanthium pensylvanicum), corn (Zea mays), cotton (Gossypium hirsutum), crabgrass (Digitaria spp.), giant foxtail (Setaria faberii), lambsquarters (Chenopodium album), morningglory (Ipomoea hederacea), rape (Brassica napus), rice (Oryza sativa), sorghum (Sorghum bicolor), soybean (Glycine max), sugar beet (Beta vulgaris), velvetleaf (Abutilon theophrasti), wheat (Triticum aestivum), wild buckwheat (Polygonum convolvulus), and wild oat (Avena fatua) and purple nutsedge. (Cyperus rotundus) tubers were planted and treated preemergence with test chemicals dissolved in a non-phytotoxic solvent. At the same time, these crop and weed species were also treated with postemergence applications of test chemicals. Plants ranged in height from two to eighteen cm (one to four leaf stage) for postemergence treatments. Treated plants and controls were maintained in a greenhouse for twelve to sixteen days, after which all species were compared to controls and visually evaluated. […] A dash (-) response means no test result.

[2] = system: chickweed; assay type: in vivo, Stellaria media
Source text: as §1

[3] = system: cheatgrass; assay type: in vivo, Bromus secalinus
Source text: as §1

[4] = system: blackgrass; assay type: in vivo, Alopecurus myosuroides
Source text: as §1

[5] = system: wild buckwheat; assay type: in vivo, Polygonum convolvulus
Source text: as §1

[6] = system: sugar beet; assay type: in vivo, Beta vulgaris
Source text: as §1

[7] = system: wild oat; assay type: in vivo, Avena fatua
Source text: as §1

[8] = system: lambsquarters; assay type: in vivo, Chenopodium album
Source text: as §1

[9] = system: wheat; assay type: in vivo, Triticum aestivum
Source text: as §1

[10] = system: rape; assay type: in vivo, Brassica napus
Source text: as §1

[11] = system: barley; assay type: in vivo, Hordeum vulgare
Source text: as §1

Fc1cc(Cl)c(-c2ccccc2)cc1-c1nn2c(c1Cl)CCCC2 [Compound 46]
Plant response rating, Bedstraw ([1]; POSTEMERGENCE, Rate 50 g/ha): 6
Plant response rating, Bedstraw ([1]; POSTEMERGENCE, Rate 200 g/ha): 8
Plant response rating, Bedstraw ([1]; PREEMERGENCE, Rate 50 g/ha): 0
Plant response rating, Bedstraw ([1]; Rate 200 g/ha, PREEMERGENCE): 2
Plant response rating, Chickweed ([2]; POSTEMERGENCE, Rate 50 g/ha): 3
Plant response rating, Chickweed ([2]; POSTEMERGENCE, Rate 200 g/ha): 3
Plant response rating, Chickweed ([2]; PREEMERGENCE, Rate 50 g/ha): 0
Plant response rating, Chickweed ([2]; Rate 200 g/ha, PREEMERGENCE): 2
Plant response rating, Cheatgrass ([3]; POSTEMERGENCE, Rate 50 g/ha): 3
Plant response rating, Cheatgrass ([3]; POSTEMERGENCE, Rate 200 g/ha): 4
Plant response rating, Cheatgrass ([3]; PREEMERGENCE, Rate 50 g/ha): 0
Plant response rating, Cheatgrass ([3]; Rate 200 g/ha, PREEMERGENCE): 0
Plant response rating, Blackgrass ([4]; POSTEMERGENCE, Rate 50 g/ha): 2
Plant response rating, Blackgrass ([4]; POSTEMERGENCE, Rate 200 g/ha): 3
Plant response rating, Blackgrass ([4]; PREEMERGENCE, Rate 50 g/ha): 0
Plant response rating, Blackgrass ([4]; Rate 200 g/ha, PREEMERGENCE): 0
Plant response rating, Wild buckwheat ([5]; POSTEMERGENCE, Rate 50 g/ha): 6
Plant response rating, Wild buckwheat ([5]; PREEMERGENCE, Rate 50 g/ha): 0
Plant response rating, Wild buckwheat ([5]; Rate 200 g/ha, POSTEMERGENCE): 10
Plant response rating, Wild buckwheat ([5]; Rate 200 g/ha, PREEMERGENCE): 4
Plant response rating, Sugar beet ([6]; POSTEMERGENCE, Rate 50 g/ha): 10
Plant response rating, Sugar beet ([6]; PREEMERGENCE, Rate 50 g/ha): 0
Plant response rating, Sugar beet ([6]; Rate 200 g/ha, POSTEMERGENCE): 9
Plant response rating, Sugar beet ([6]; Rate 200 g/ha, PREEMERGENCE): 7
Plant response rating, Wild oat ([7]; POSTEMERGENCE, Rate 50 g/ha): 2
Plant response rating, Wild oat ([7]; PREEMERGENCE, Rate 50 g/ha): 0
Plant response rating, Wild oat ([7]; Rate 200 g/ha, POSTEMERGENCE): 2
Plant response rating, Lambsquarter ([8]; POSTEMERGENCE, Rate 50 g/ha): 9
Plant response rating, Lambsquarter ([8]; PREEMERGENCE, Rate 50 g/ha): 0
Plant response rating, Lambsquarter ([8]; Rate 200 g/ha, POSTEMERGENCE): 10
Plant response rating, Lambsquarter ([8]; Rate 200 g/ha, PREEMERGENCE): 9
Plant response rating, Wheat ([9]; POSTEMERGENCE, Rate 50 g/ha): 2
Plant response rating, Wheat ([9]; PREEMERGENCE, Rate 50 g/ha): 0
Plant response rating, Wheat ([9]; Rate 200 g/ha, POSTEMERGENCE): 3
Plant response rating, Wheat ([9]; Rate 200 g/ha, PREEMERGENCE): 0
Plant response rating, Rape ([10]; POSTEMERGENCE, Rate 50 g/ha): 4
Plant response rating, Rape ([10]; PREEMERGENCE, Rate 50 g/ha): 0
Plant response rating, Rape ([10]; Rate 200 g/ha, POSTEMERGENCE): 4
Plant response rating, Rape ([10]; Rate 200 g/ha, PREEMERGENCE): 0
Plant response rating, Barley ([11]; POSTEMERGENCE, Rate 50 g/ha): 2
Plant response rating, Barley ([11]; POSTEMERGENCE, Rate 200 g/ha): 3
Plant response rating, Barley ([11]; PREEMERGENCE, Rate 50 g/ha): 0
Plant response rating, Barley ([11]; Rate 200 g/ha, PREEMERGENCE): 0

Reference: US6358885B1, “Substituted phenylheterocyclic herbicides” (Mississippi State University, priority 1992, dated 2002)
